Reference: US20050112128A1, “Inhibition of protein kinase c-mu (PKD) as a treatment for cardiac hypertrophy and heart failure” (Myogen, Inc. and Board of Regents, The University of Texas …, priority 2003, published 2005)
“Also recorded” adds a separate entry of the source.

Columns and labels:
PKD = biological target: T1, PKD (Homo sapiens, UniProt Q15139); details: literature (Van Lint 2002; Gschwendt 1996; Haworth); cited from earlier work
T1 sequence (Q15139 1-912): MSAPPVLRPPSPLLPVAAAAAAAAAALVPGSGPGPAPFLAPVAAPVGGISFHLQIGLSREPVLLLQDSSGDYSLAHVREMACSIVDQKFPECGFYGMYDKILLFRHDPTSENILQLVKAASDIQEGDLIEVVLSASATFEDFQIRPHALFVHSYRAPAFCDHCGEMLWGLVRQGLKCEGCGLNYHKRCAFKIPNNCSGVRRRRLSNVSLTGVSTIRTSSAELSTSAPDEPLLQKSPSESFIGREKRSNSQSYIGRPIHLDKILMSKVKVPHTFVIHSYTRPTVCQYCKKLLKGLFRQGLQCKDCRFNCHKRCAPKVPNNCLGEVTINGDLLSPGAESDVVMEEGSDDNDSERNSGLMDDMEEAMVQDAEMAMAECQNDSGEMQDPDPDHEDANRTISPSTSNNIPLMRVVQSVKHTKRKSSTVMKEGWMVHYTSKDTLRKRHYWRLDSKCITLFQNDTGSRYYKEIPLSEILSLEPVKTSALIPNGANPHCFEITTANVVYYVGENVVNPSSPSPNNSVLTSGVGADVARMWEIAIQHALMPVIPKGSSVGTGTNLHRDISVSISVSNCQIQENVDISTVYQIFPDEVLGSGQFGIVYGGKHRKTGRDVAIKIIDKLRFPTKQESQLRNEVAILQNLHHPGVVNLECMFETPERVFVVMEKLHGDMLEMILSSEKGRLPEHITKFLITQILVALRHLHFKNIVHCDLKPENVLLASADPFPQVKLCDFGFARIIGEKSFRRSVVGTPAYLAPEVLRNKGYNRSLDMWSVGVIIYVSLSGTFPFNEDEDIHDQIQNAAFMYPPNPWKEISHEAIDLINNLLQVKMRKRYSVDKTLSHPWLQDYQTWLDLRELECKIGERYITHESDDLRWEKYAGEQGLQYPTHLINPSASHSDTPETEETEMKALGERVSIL

[1] = system: association of HDAC5 and 14-3-3; assay: Immunoprecipitation/immunoblotting of HDAC5 and 14-3-3 in NRVMs; type: cell-based, rat; details: inhibitor 10 μM, 1 hr before PE (20 μM) or ET-1 (50 nM) for 1 hr
[2] = system: nuclear export of GFP-HDAC5 in NRVMs; assay: Quantitative HDAC5 nuclear export assay in NRVMs (Cellomics High Content Imaging System); type: cell-based, rat; details: 2 hrs
HDAC5-bound PKD = biological target: T2, HDAC5-bound PKD (Rattus norvegicus, UniProt Q9WTQ1); type: biochemical; details: 10 μM inhibitor in kinase reaction mixture (post)
T2 construct: Association of endogenous PKD with HDAC5 in cardiomyocytes; endogenous in cells; host or cells: neonatal rat ventricular myocytes; the kinase co-precipitated with adenoviral FLAG-HDAC5
T2 sequence (Q9WTQ1 1-918): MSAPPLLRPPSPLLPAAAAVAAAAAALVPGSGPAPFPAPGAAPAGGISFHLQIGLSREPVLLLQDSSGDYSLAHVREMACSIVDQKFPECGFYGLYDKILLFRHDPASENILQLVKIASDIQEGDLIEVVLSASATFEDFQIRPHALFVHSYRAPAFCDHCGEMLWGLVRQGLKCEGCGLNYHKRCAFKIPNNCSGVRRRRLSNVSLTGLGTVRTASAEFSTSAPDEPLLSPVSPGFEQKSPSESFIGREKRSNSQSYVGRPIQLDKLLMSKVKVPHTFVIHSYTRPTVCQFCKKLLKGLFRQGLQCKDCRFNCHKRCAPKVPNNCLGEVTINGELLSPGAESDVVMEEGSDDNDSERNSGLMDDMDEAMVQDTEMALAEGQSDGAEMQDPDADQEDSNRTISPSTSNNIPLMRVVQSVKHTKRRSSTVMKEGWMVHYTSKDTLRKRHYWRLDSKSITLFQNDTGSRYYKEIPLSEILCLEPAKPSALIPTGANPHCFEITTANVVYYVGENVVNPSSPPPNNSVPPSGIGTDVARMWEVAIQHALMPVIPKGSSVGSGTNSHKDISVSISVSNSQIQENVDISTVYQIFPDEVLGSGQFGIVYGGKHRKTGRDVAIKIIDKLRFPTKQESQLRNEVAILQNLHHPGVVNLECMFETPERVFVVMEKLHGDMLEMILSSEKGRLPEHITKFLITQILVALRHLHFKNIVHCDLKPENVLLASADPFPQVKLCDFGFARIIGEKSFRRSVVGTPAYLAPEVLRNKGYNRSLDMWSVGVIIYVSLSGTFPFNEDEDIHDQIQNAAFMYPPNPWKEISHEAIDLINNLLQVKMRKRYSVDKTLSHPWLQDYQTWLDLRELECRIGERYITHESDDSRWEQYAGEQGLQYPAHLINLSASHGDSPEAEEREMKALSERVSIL

NRVMs = assay: ANF immunostaining of cardiomyocytes (hypertrophy marker); type: cell-based, rat; details: PE 20 μM or PMA 100 nM, 24 hrs
Description: FIGS. 3A-C—Inhibition of PKC-mediated cardiac hypertrophy by signalresistant HDAC5. NRVMs were cultured on 6-well dishes and infected with adenoviruses (MOI=10) encoding a LacZ control (Ad-LacZ) or FLAG-tagged HDAC5 harboring alanines in place of serines 259 and 498 (Ad-HDAC5 S/A), which are required for 14-3-3-mediated nuclear export. Cells were treated with PE (20 μM) or PMA (100 nM) for 24 hrs prior to analysis. FIG. 3A. Cells were fixed and sarcomeres visualized by indirect immunofluorescence with primary antibody specific for α-actinin and fluorescein-conjugated secondary antibody. FIG. 3B. ANF protein was detected by indirect immunofluorescence with anti-ANF primary antibody. FIG. 3C. Total RNA was harvested from cells and subjected to dot blot analysis with radiolabeled oligonucleotides specific for the indicated transcripts. RNA levels were quantified using a phosphorimager and are depicted as -fold change relative to amounts in unstimulated cells infected with Ad-LacZ. Values were normalized to GAPDH controls.
Cell culture and transfection assays. COS cells were maintained in DMEM with FBS (10%), L-glutamine (2 mM), and penicillin-streptomycin. Transfection of COS cells was performed with Fugene 6 (Roche Molecular Biochemicals) according to manufacturer's instructions. […]

endogenous PKD = assay: Co-immunoprecipitation of endogenous PKD with HDAC5 in NRVMs (total PKD and p-916 immunoblot); type: cell-based, rat; details: PE 20 μM 1 hr, absence or presence of Bis I 10 μM
[3] = Takahashi et al., 1996; cited from earlier work
ras transformed cells = details: Taunton et al., 1996; cited from earlier work

For `Cn1c2ccccc2c2c3c(c4c5ccccc5n(CCC#N)c4c21)CNC3=O` [Gö6976], the “sensitivity of PKD to the inhibitor” value (PKD) is given as “sensitive to Gö6976”, the “block of association of HDAC5 and 14-3-3” value [1] is given as “blocked association of HDAC5 and 14-3-3 in response to both PE and ET-1” and the “block of ET-1-induced nuclear export of HDAC5” value ([2]; NRVMs, ET-1 50 nM, inhibitor pre-treatment 30 min) is given as “efficiently blocked nuclear export of HDAC5”. For the same compound, the “block of FBS-induced nuclear export of HDAC5” value ([2]; NRVMs, FBS 10%, inhibitor pre-treatment 30 min) was “efficiently blocked nuclear export of HDAC5”, the “block of PE-induced nuclear export of HDAC5” value ([2]; NRVMs, PE 20 μM, inhibitor pre-treatment 30 min, KN93, wortmannin, staurosporine 1 mM, U1026, HA1077, Y-27632, DAG Kinase inhibitor II, SB216763, Bis I 10 mM, rapamycin 30 ng/ml, Gö6983 10 μM) was “efficiently blocked nuclear export of HDAC5” and the “block of HDAC5 phosphorylation, inhibitor added directly to kinase reaction” value (HDAC5-bound PKD) was “blocked phosphorylation of HDAC5; also recorded: blocked phosphoryl transfer to HDAC5”.

For `CNC[C@H](O)c1cccc(O)c1` [PE, phenylephrine], the “agonist-triggered nuclear export of HDAC5 in cardiomyocytes” value ([2]; NRVMs infected with Ad-GFP-HDAC5, PE 0.1 to 20 μM, ET-1 50 nM, FBS 10%) was “triggered nuclear export of HDAC5 in a concentration-dependent manner; also recorded: triggered dose-dependent nuclear export of HDAC5”, the ANF protein expression (NRVMs) was “prominent perinuclear ANF protein expression” and the “activation of HDAC5-associated PKD” value (endogenous PKD) was “became activated in a PKC-dependent manner”.

In the case of `CC(/C=C/C(=O)NO)=C\[C@@H](C)C(=O)c1ccc(N(C)C)cc1` [Trichostatin A], the “immunosuppression in a mouse model” value [3] is listed as “induces immunsuppression in a mouse model” and the “effect on acetylation and morphology of ras transformed cells” value (ras transformed cells) is listed as “induce hyperacetylation and cause reversion of ras transformed cells to normal morphology”.
